# Results published in PMC3362524 (The Journal of General Physiology, 2012).
# Where a chain is given by its changes, count along the chain named. Where two headings read alike, the source gives them in different places.
# Columns and labels:
# Type in all cases: cell-based
# [1] = target: T1, NaChBac (voltage-gated sodium channel from Bacillus halodurans) (Halalkalibacterium halodurans, UniProt Q9KCR8, T220A); assay: patch clamp in HEK-293 cells, peak current concentration response
# T1 sequence (Q9KCR8 1-274 T220A): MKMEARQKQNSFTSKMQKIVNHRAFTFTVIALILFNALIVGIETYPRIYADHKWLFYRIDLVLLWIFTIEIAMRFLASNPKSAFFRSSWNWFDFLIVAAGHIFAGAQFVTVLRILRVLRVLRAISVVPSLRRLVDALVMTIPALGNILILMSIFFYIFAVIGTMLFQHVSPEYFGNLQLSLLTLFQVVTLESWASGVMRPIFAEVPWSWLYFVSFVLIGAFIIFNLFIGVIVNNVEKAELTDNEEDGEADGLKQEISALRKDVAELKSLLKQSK
# [2] = target: T2, NaChBac (voltage-gated sodium channel from Bacillus halodurans) (Halalkalibacterium halodurans, UniProt Q9KCR8)
# T2 sequence (Q9KCR8 1-274): T1 sequence (Q9KCR8 1-274 T220A) with A220T
# [3] = target: T2, NaChBac (voltage-gated sodium channel from Bacillus halodurans); remark: listed apart in the source
SMILES,IC50 [1],IC50 [2],IC50 [3]
CCN(CC)CC(=O)Nc1c(C)cccc1C [lidocaine],765 ± 76.3 µM,~260 µM,
CCOC(=O)c1ccc(N)cc1 [benzocaine],,,650 µM
COc1ccccc1OCC(O)CN1CCN(CC(=O)Nc2c(C)cccc2C)CC1 (stereo not shown) [ranolazine],,~60 µM,
